Laboratory results taken from paper PMC11375702, “Early Preclinical Studies of Ergosterol Peroxide and Biological Evaluation of Its Derivatives” (ACS Omega, 2024).

Assays:
[1] = Metabolic stability in human liver microsomes; format: in vitro ADME; details: both sexes, pooled liver microsomes, read-out: metabolic stability (human) t1/2 (converted)
Experimental: (§3) Human and/or mouse microsomal degradation was determined using multiple time points to monitor the rate of disappearance of the parent compound during incubation following the method described by Di et al.[51],[52] […] The metabolic stability was evaluated via the half-life from the least-squares fit of the multiple time points based on first-order kinetics. Waters ACQUITY-TOQ UPLC-MS-MS-UV system was used to analyze the samples as established in various MS core facilities.[51],[52]

[2] = Metabolic stability in mouse liver microsomes; format: in vitro ADME; details: female, CD-1, pooled liver microsomes, read-out: metabolic stability (mouse) t1/2 (converted)
Experimental: as §3

SUM149 = assay: CellTiter-Glo 72 h cytotoxicity assay, SUM149; format: cell-based; details: Homo sapiens; for EC50: SUM149, CTG assay, 72 h; for IC50: calculated from SUM149 EC50
Description: First, topological polar surface area (tPSA), a widely used molecular descriptor that provides insight into compound absorption and membrane penetration, was theoretically calculated for these compounds along with the estimated c log P (partition coefficient) or log P to further assess their global therapeutic potential.[18],[19] Lipophilicity, a measurable and predictable physical property, can provide practical guidance in designing compounds with improved molecular properties.[20] The tPSA sums the contribution of the surface area of polar atoms, enabling us to determine whether the compounds are more likely to be cell membrane permeable. The aqueous solubility was measured by ultraviolet/visible (UV/vis) spectroscopy.[21] […] EP shares an improved cLogP, but still relatively high from a desirable drug candidate (2.5–3.5). […] Compound 4 has a higher c log P, while compounds 5–10 have lower c log P values. To determine LiPE (lipophilicity efficiency), the following formula was used: LiPE = pIC50 – log P, according to established methods.[22],[23] […] The obtained EC50 values for the newly generated EP derivatives were within a similar range for other derivatives previously described against TNBC models.[17]
(§1) The following stable human cell lines were utilized for this study: SUM149 and MDA-MB-231 (breast cancer models) and BJ (human normal fibroblast, foreskin). Cells were purchased from BioIVT or the American Type Culture Collection (ATCC). Cells were cultured in F-12-Nutrient Mixture (SUM149), DMEM (MDA-MB-231), or EMEM (BJ) medium supplemented with 10% fetal bovine serum (Sigma-Aldrich, St. Louis, MO) and 2 mmol of L-glutamine, at 37 °C in a humidified 5% CO2 atmosphere (no antibiotics) as indicated by the manufacturer. Cell cultures were grown to 80–90% confluence before use, except where otherwise specified. Our cell lines are authenticated every 3 months using the CellCheck service (Idexx BioResearch, Westbrook, ME). Cells were tested for mycoplasma prior to use (MycoAlert detection Kit Lonza LT07–318) and discarded if they tested positive. A cell proliferation assay was performed using the CellTiter-Glo (Promega Corp., Madison, WI) luminescent cell viability assay kit. Cells were detached with trypsin, counted, and seeded in white polystyrene flat-bottom sterile 96-well tissue culture-treated plates (catalog no. 3917, Corning, Glendale, Arizona) and incubated overnight at 37 °C. MDA-MB231, SUM149, and BJ cells were seeded into 96-well plates at concentrations experimentally determined (0.4 × 10^4, 0.25 × 10^4, and 0.3 × 10^4 cells per well, respectively) to ensure logarithmic growth during the duration of the experiment and to prevent adverse effects on cell growth by DMSO exposure. The plates were incubated for 12 h before treatment. Stock solutions of test compounds (10 mM in DMSO) in nine 3-fold serial dilutions were dispensed. The final concentration of DMSO was 0.3% (v/v) in each well. The positive control used was staurosporine (10 μM) as the kill-all control, and the negative control used is DMSO as we have published. Staurosporine is a potent alkaloid inducer of various cell death modalities but primarily apoptosis, making it a reliable positive control for viability assays. The plates were incubated for 72 h and then quenched with CTG at 50 μL per well at RT. Plates were then incubated at RT for 20 min and centrifuged at 1000 rpm for 1 min. Luminescence was read on a CLARIOstar Plus plate reader (BMG LabTech, Ortenberg, Germany).
Three or four technical replicates were conducted for each experimental condition, and a minimum of three independent experiments were conducted for each assay. In vitro ADME values were expressed as mean ± standard deviation (SD) of at least three independent experiments. One-way analysis of variance (ANOVA) was adopted for comparisons among groups using the GraphPad Prism 10.2.3 (GraphPad Software, San Diego, CA). A difference of P < 0.05 was considered as statistically significant. […]

MDA-MB-231 = assay: CellTiter-Glo 72 h cytotoxicity assay, MDA-MB-231; format: cell-based; details: Homo sapiens, CTG assay, read-out: MDA-MB231 (EC50)
Experimental: as §1
(§2) Three or four technical replicates were conducted for each experimental condition, and a minimum of three independent experiments were conducted for each assay. In vitro ADME values were expressed as mean ± standard deviation (SD) of at least three independent experiments. One-way analysis of variance (ANOVA) was adopted for comparisons among groups using the GraphPad Prism 10.2.3 (GraphPad Software, San Diego, CA). A difference of P < 0.05 was considered as statistically significant. Data are expressed as mean ± SEM. For CTG, the mean luminescence of each experimental treatment group was normalized as a percentage of the mean intensity of untreated controls (DMSO as vehicle). EC50 values were calculated from dose–response curve fitting via nonlinear regression using GraphPad Prism 10.2.3 (GraphPad Software, San Diego, CA). A therapeutic index (TI) between normal and tumor cell lines can be determined (EC50 non-neoplastic cell line BJ)/(EC50 cancer cell line). In vivo studies were analyzed using mixed-effects regression models to compare the changes in tumor volume over time by treatment group. Tumor volume reduction was compared using ANOVA with repeated measures, and all data was considered significant when P < 0.05.

[3] = Simulated gastric fluid (SGF) stability; format: in vitro ADME; details: simulated gi fluid; for half-life: SGF stability t1/2
Experimental: The simulated gastric fluid (SGF) assay is an important element in determining the overall drug-like potential of compounds.[29],[30] Anecdotal studies of oral consumption of extracts by humans indicate positive outcomes of digestion of mixtures of EP and its related natural products found in G. lucidum.[2] […] Chlorambucil was used as positive control as previously described.[32],[33] […] Caco-2 permeability studies were conducted to validate and to provide information on EP’s ability to cross the intestinal barrier and its potential for interactions with drug transporters.[36]−[39] The rate of transport in both directions (A-B and B-A) across the cell monolayer enables an efflux ratio (B-A/A-B) to be determined, enabling us to determine if a compound undergoes active efflux (efflux ratio ≥2).

BJ = assay: CellTiter-Glo 72 h cytotoxicity assay, BJ normal fibroblasts; format: cell-based; details: Homo sapiens, CTG assay, noncancerous fibroblasts
Experimental: as §1, §2

SMILES | half-life [1] [h] | half-life [2] [h] | EC50 (SUM149) [µM] | IC50 (SUM149) [µM] | EC50 (MDA-MB-231) [µM] | half-life [3] [h] | EC50 (BJ) [µM] | SGF stability t1/2 [3] [h]
CC(C)[C@@H](C)/C=C/[C@@H](C)[C@H]1CC[C@@H]2[C@]1(C)CC[C@H]1[C@]23C=C[C@]2(C[C@@H](O)CC[C@]12C)OO3 [Compound 2, Ergosterol peroxide] | 2.74 | 5.63 | 6 | 6.03 | 18 | > 48 | > 50 | 
CC(C)[C@@H](C)/C=C/[C@@H](C)[C@H]1CC[C@@H]2[C@]1(C)CC[C@H]1[C@]23C=C[C@]2(CC(=O)CC[C@]12C)OO3 [Compound 3] | 0.83 | 0.9 | 5 | 5.01 | 7 | ~9 | > 50 | 8.92
